Assay results: ChEMBL document CHEMBL5724914, “Linking interpersonal differences in gut microbiota composition and drug biotransformation activity” (2024)

What was measured:
[1] = human gut metagenome, 24 h, 2 µM
[2] = The drug is tested on Z-008 corresponding to metagenome with ENA study accession number: PRJEB37062 and ENA sample accession number: ERS12561808 for biotransformation under anaerobic condition. The drug concentrations were measured over 9 timepoints collected between 0 and 24 hours of incubation by liquid-chromatography-coupled mass spectrometry (LC–MS); settings: 2 µM
[3] = human gut metagenome, 24 h, 2 µM; remark: listed apart in the source
[4] = human gut metagenome, 24 h, 2 µM; remark: listed apart in the source
[5] = The drug is tested on Z-016 corresponding to mouse gut metagenome with ENA study accession number: PRJEB37062 and ENA sample accession number: ERS12561815 for biotransformation under anaerobic condition. The drug concentrations were measured over 9 timepoints collected between 0 and 24 hours of incubation by liquid-chromatography-coupled mass spectrometry (LC–MS); settings: 2 µM
[6] = The drug is tested on WLS-007 corresponding to human gut metagenome with ENA study accession number: PRJEB37062 and ENA sample accession number: ERS12561742 for biotransformation under anaerobic condition. The drug concentrations were measured over 9 timepoints collected between 0 and 24 hours of incubation by liquid-chromatography-coupled mass spectrometry (LC–MS); settings: 2 µM
[7] = human gut metagenome, 24 h, 2 µM; remark: listed apart in the source
[8] = The drug is tested on Z-001 corresponding to mouse gut metagenome with ENA study accession number: PRJEB37062 and ENA sample accession number: ERS12561801 for biotransformation under anaerobic condition. The drug concentrations were measured over 9 timepoints collected between 0 and 24 hours of incubation by liquid-chromatography-coupled mass spectrometry (LC–MS); settings: 2 µM
[9] = The drug is tested on Z-029 corresponding to rat gut metagenome with ENA study accession number: PRJEB37062 and ENA sample accession number: ERS12561828 for biotransformation under anaerobic condition. The drug concentrations were measured over 9 timepoints collected between 0 and 24 hours of incubation by liquid-chromatography-coupled mass spectrometry (LC–MS); settings: 2 µM
[10] = The drug is tested on Z-014 corresponding to rat gut metagenome with ENA study accession number: PRJEB37062 and ENA sample accession number: ERS12561814 for biotransformation under anaerobic condition. The drug concentrations were measured over 9 timepoints collected between 0 and 24 hours of incubation by liquid-chromatography-coupled mass spectrometry (LC–MS); settings: 2 µM
[11] = human gut metagenome, 24 h, 2 µM; remark: listed apart in the source
[12] = The drug is tested on Z-019 corresponding to rat gut metagenome with ENA study accession number: PRJEB37062 and ENA sample accession number: ERS12561818 for biotransformation under anaerobic condition. The drug concentrations were measured over 9 timepoints collected between 0 and 24 hours of incubation by liquid-chromatography-coupled mass spectrometry (LC–MS); settings: 2 µM
[13] = The drug is tested on Z-017 corresponding to mouse gut metagenome with ENA study accession number: PRJEB37062 and ENA sample accession number: ERS12561816 for biotransformation under anaerobic condition. The drug concentrations were measured over 9 timepoints collected between 0 and 24 hours of incubation by liquid-chromatography-coupled mass spectrometry (LC–MS); settings: 2 µM
[14] = The drug is tested on WLS-010 corresponding to human gut metagenome with ENA study accession number: PRJEB37062 and ENA sample accession number: ERS12561743 for biotransformation under anaerobic condition. The drug concentrations were measured over 9 timepoints collected between 0 and 24 hours of incubation by liquid-chromatography-coupled mass spectrometry (LC–MS); settings: 2 µM
[15] = The drug is tested on Z-028 corresponding to mouse gut metagenome with ENA study accession number: PRJEB37062 and ENA sample accession number: ERS12561827 for biotransformation under anaerobic condition. The drug concentrations were measured over 9 timepoints collected between 0 and 24 hours of incubation by liquid-chromatography-coupled mass spectrometry (LC–MS); settings: 2 µM
[16] = human gut metagenome, 24 h, 2 µM; remark: listed apart in the source
[17] = The drug is tested on Z-026 corresponding to metagenome with ENA study accession number: PRJEB37062 and ENA sample accession number: ERS12561825 for biotransformation under anaerobic condition. The drug concentrations were measured over 9 timepoints collected between 0 and 24 hours of incubation by liquid-chromatography-coupled mass spectrometry (LC–MS); settings: 2 µM
[18] = human gut metagenome, 24 h, 2 µM; remark: listed apart in the source
[19] = human gut metagenome, 24 h, 2 µM; remark: listed apart in the source
[20] = The drug is tested on WLS-310 corresponding to human gut metagenome with ENA study accession number: PRJEB37062 and ENA sample accession number: ERS12561785 for biotransformation under anaerobic condition. The drug concentrations were measured over 9 timepoints collected between 0 and 24 hours of incubation by liquid-chromatography-coupled mass spectrometry (LC–MS); settings: 2 µM
Note: call rule not given here.

## NS(=O)(=O)c1cc2c(cc1Cl)N=C(CSCc1ccccc1)NS2(=O)=O [BENZTHIAZIDE]
[1]
  Bacterial Biotransformation: Compound NOT metabolized
[2]
  Bacterial Biotransformation: Compound NOT metabolized
[3]
  Bacterial Biotransformation: Compound NOT metabolized
[4]
  Bacterial Biotransformation: Compound NOT metabolized
[5]
  Bacterial Biotransformation: Compound NOT metabolized
[6]
  Bacterial Biotransformation: Compound NOT metabolized
[7]
  Bacterial Biotransformation: Compound NOT metabolized
[8]
  Bacterial Biotransformation: Compound NOT metabolized
[9]
  Bacterial Biotransformation: Compound NOT metabolized
[10]
  Bacterial Biotransformation: Compound NOT metabolized
[11]
  Bacterial Biotransformation: Compound NOT metabolized
[12]
  Bacterial Biotransformation: Compound NOT metabolized
[13]
  Bacterial Biotransformation: Compound NOT metabolized
[14]
  Bacterial Biotransformation: Compound NOT metabolized
[15]
  Bacterial Biotransformation: Compound NOT metabolized
[16]
  Bacterial Biotransformation: Compound NOT metabolized
[17]
  Bacterial Biotransformation: Compound NOT metabolized
[18]
  Bacterial Biotransformation: Compound NOT metabolized
[19]
  Bacterial Biotransformation: Compound NOT metabolized
[20]
  Bacterial Biotransformation: Compound NOT metabolized

## CC(C)NCC(O)COc1ccc(COCCOC(C)C)cc1.CC(C)NCC(O)COc1ccc(COCCOC(C)C)cc1.O=C(O)/C=C/C(=O)O (stereo not given) [BISOPROLOL FUMARATE]
[1]
  Bacterial Biotransformation: Compound NOT metabolized
[2]
  Bacterial Biotransformation: Compound NOT metabolized
[3]
  Bacterial Biotransformation: Compound NOT metabolized
[4]
  Bacterial Biotransformation: Compound metabolized
[5]
  Bacterial Biotransformation: Compound NOT metabolized
[6]
  Bacterial Biotransformation: Compound metabolized
[7]
  Bacterial Biotransformation: Compound NOT metabolized
[8]
  Bacterial Biotransformation: Compound metabolized
[9]
  Bacterial Biotransformation: Compound NOT metabolized
[10]
  Bacterial Biotransformation: Compound NOT metabolized
[11]
  Bacterial Biotransformation: Compound NOT metabolized
[12]
  Bacterial Biotransformation: Compound NOT metabolized
[13]
  Bacterial Biotransformation: Compound NOT metabolized
[14]
  Bacterial Biotransformation: Compound NOT metabolized
[15]
  Bacterial Biotransformation: Compound NOT metabolized
[16]
  Bacterial Biotransformation: Compound NOT metabolized
[17]
  Bacterial Biotransformation: Compound NOT metabolized
[18]
  Bacterial Biotransformation: Compound metabolized
[19]
  Bacterial Biotransformation: Compound NOT metabolized
[20]
  Bacterial Biotransformation: Compound NOT metabolized

## CCCCCOC(=O)Nc1nc(=O)n([C@@H]2O[C@H](C)[C@@H](O)[C@H]2O)cc1F [CAPECITABINE]
[1]
  Bacterial Biotransformation: Compound metabolized
[2]
  Bacterial Biotransformation: Compound NOT metabolized
[3]
  Bacterial Biotransformation: Compound metabolized
[4]
  Bacterial Biotransformation: Compound metabolized
[5]
  Bacterial Biotransformation: Compound metabolized
[6]
  Bacterial Biotransformation: Compound metabolized
[7]
  Bacterial Biotransformation: Compound NOT metabolized
[8]
  Bacterial Biotransformation: Compound metabolized
[9]
  Bacterial Biotransformation: Compound metabolized
[10]
  Bacterial Biotransformation: Compound NOT metabolized
[11]
  Bacterial Biotransformation: Compound metabolized
[12]
  Bacterial Biotransformation: Compound NOT metabolized
[13]
  Bacterial Biotransformation: Compound metabolized
[14]
  Bacterial Biotransformation: Compound metabolized
[15]
  Bacterial Biotransformation: Compound metabolized
[16]
  Bacterial Biotransformation: Compound metabolized
[17]
  Bacterial Biotransformation: Compound NOT metabolized
[18]
  Bacterial Biotransformation: Compound metabolized
[19]
  Bacterial Biotransformation: Compound NOT metabolized
[20]
  Bacterial Biotransformation: Compound metabolized
